Assay results as given in the NIST ThermoML archive (doi:10.1016/j.jct.2015.08.014).
± gives the expanded uncertainty stated by the source.

Assay: xn = mol fraction of the nth substance listed
Conditions: 100 kPa, Liquid; for electrical conductivity: Alternating current cell with electrodes; for mass density: Vibrating tube method; for viscosity: Capillary tube (Ostwald / Ubbelohde) method

CCCC[N+]1(C)CCCC1.N#CN=C=[N-] [1-butyl-1-methylpyrrolidinium dicyanamide] + O=C1CCCO1
Conditions | electrical conductivity [S/m]
283.15 K, Frequency=0.008 MHz, x1 = 0.0463 | 1.17 ± 0.02
283.15 K, Frequency=0.008 MHz, x1 = 0.0987 | 1.73 ± 0.021
283.15 K, Frequency=0.008 MHz, x1 = 0.1449 | 1.93 ± 0.02
283.15 K, Frequency=0.008 MHz, x1 = 0.1859 | 2.028 ± 0.02
283.15 K, Frequency=0.008 MHz, x1 = 0.2493 | 1.926 ± 0.019
283.15 K, Frequency=0.008 MHz, x1 = 0.3029 | 1.84 ± 0.019
283.15 K, Frequency=0.008 MHz, x1 = 0.3845 | 1.66 ± 0.017
283.15 K, Frequency=0.008 MHz, x1 = 0.4985 | 1.407 ± 0.014
283.15 K, Frequency=0.008 MHz, x1 = 0.6954 | 1.07 ± 0.01
283.15 K, Frequency=0.008 MHz, x1 = 0.9013 | 0.849 ± 0.009
283.15 K, Frequency=0.008 MHz, x1 = 1 | 0.786 ± 0.008
283.15 K, Frequency=0.00857143 MHz, x1 = 0.0463 | 1.17 ± 0.02
283.15 K, Frequency=0.00857143 MHz, x1 = 0.0987 | 1.73 ± 0.021
283.15 K, Frequency=0.00857143 MHz, x1 = 0.1449 | 1.93 ± 0.02
283.15 K, Frequency=0.00857143 MHz, x1 = 0.1859 | 2.028 ± 0.02
283.15 K, Frequency=0.00857143 MHz, x1 = 0.2493 | 1.926 ± 0.019
283.15 K, Frequency=0.00857143 MHz, x1 = 0.3029 | 1.84 ± 0.019
283.15 K, Frequency=0.00857143 MHz, x1 = 0.3845 | 1.66 ± 0.017
283.15 K, Frequency=0.00857143 MHz, x1 = 0.4985 | 1.407 ± 0.014
283.15 K, Frequency=0.00857143 MHz, x1 = 0.6954 | 1.07 ± 0.01
283.15 K, Frequency=0.00857143 MHz, x1 = 0.9013 | 0.849 ± 0.009
283.15 K, Frequency=0.00857143 MHz, x1 = 1 | 0.786 ± 0.008
283.15 K, Frequency=0.00892857 MHz, x1 = 0.0463 | 1.17 ± 0.02
283.15 K, Frequency=0.00892857 MHz, x1 = 0.0987 | 1.73 ± 0.021
283.15 K, Frequency=0.00892857 MHz, x1 = 0.1449 | 1.93 ± 0.02
283.15 K, Frequency=0.00892857 MHz, x1 = 0.1859 | 2.028 ± 0.02
283.15 K, Frequency=0.00892857 MHz, x1 = 0.2493 | 1.926 ± 0.019
283.15 K, Frequency=0.00892857 MHz, x1 = 0.3029 | 1.84 ± 0.019
283.15 K, Frequency=0.00892857 MHz, x1 = 0.3845 | 1.66 ± 0.017
283.15 K, Frequency=0.00892857 MHz, x1 = 0.4985 | 1.407 ± 0.014
283.15 K, Frequency=0.00892857 MHz, x1 = 0.6954 | 1.07 ± 0.01
283.15 K, Frequency=0.00892857 MHz, x1 = 0.9013 | 0.849 ± 0.009
283.15 K, Frequency=0.00892857 MHz, x1 = 1 | 0.786 ± 0.008
283.15 K, Frequency=0.00961538 MHz, x1 = 0.0463 | 1.17 ± 0.02
283.15 K, Frequency=0.00961538 MHz, x1 = 0.0987 | 1.73 ± 0.021
283.15 K, Frequency=0.00961538 MHz, x1 = 0.1449 | 1.93 ± 0.02
283.15 K, Frequency=0.00961538 MHz, x1 = 0.1859 | 2.028 ± 0.02
283.15 K, Frequency=0.00961538 MHz, x1 = 0.2493 | 1.927 ± 0.019
283.15 K, Frequency=0.00961538 MHz, x1 = 0.3029 | 1.84 ± 0.019
283.15 K, Frequency=0.00961538 MHz, x1 = 0.3845 | 1.66 ± 0.017
283.15 K, Frequency=0.00961538 MHz, x1 = 0.4985 | 1.407 ± 0.014
283.15 K, Frequency=0.00961538 MHz, x1 = 0.6954 | 1.07 ± 0.01
283.15 K, Frequency=0.00961538 MHz, x1 = 0.9013 | 0.849 ± 0.009
283.15 K, Frequency=0.00961538 MHz, x1 = 1 | 0.786 ± 0.008
283.15 K, Frequency=0.01 MHz, x1 = 0.0463 | 1.17 ± 0.02
283.15 K, Frequency=0.01 MHz, x1 = 0.0987 | 1.73 ± 0.021
283.15 K, Frequency=0.01 MHz, x1 = 0.1449 | 1.93 ± 0.02
283.15 K, Frequency=0.01 MHz, x1 = 0.1859 | 2.028 ± 0.02
283.15 K, Frequency=0.01 MHz, x1 = 0.2493 | 1.927 ± 0.019
283.15 K, Frequency=0.01 MHz, x1 = 0.3029 | 1.84 ± 0.019
283.15 K, Frequency=0.01 MHz, x1 = 0.3845 | 1.66 ± 0.017
283.15 K, Frequency=0.01 MHz, x1 = 0.4985 | 1.407 ± 0.014
283.15 K, Frequency=0.01 MHz, x1 = 0.6954 | 1.07 ± 0.01
283.15 K, Frequency=0.01 MHz, x1 = 0.9013 | 0.849 ± 0.009
283.15 K, Frequency=0.01 MHz, x1 = 1 | 0.786 ± 0.008
293.15 K, Frequency=0.0005 MHz, x1 = 0.0463 | 1.36 ± 0.024
293.15 K, Frequency=0.0005 MHz, x1 = 0.0987 | 2.03 ± 0.025
293.15 K, Frequency=0.0005 MHz, x1 = 0.1449 | 2.31 ± 0.024
293.15 K, Frequency=0.0005 MHz, x1 = 0.1859 | 2.426 ± 0.024
293.15 K, Frequency=0.0005 MHz, x1 = 0.2493 | 2.37 ± 0.024
293.15 K, Frequency=0.0005 MHz, x1 = 0.3029 | 2.28 ± 0.023
293.15 K, Frequency=0.0005 MHz, x1 = 0.3845 | 2.108 ± 0.021
293.15 K, Frequency=0.0005 MHz, x1 = 0.4985 | 1.84 ± 0.019
293.15 K, Frequency=0.0005 MHz, x1 = 0.6954 | 1.45 ± 0.015
293.15 K, Frequency=0.0005 MHz, x1 = 0.9013 | 1.19 ± 0.012
293.15 K, Frequency=0.0005 MHz, x1 = 1 | 1.122 ± 0.011
293.15 K, Frequency=0.001 MHz, x1 = 0.0463 | 1.36 ± 0.024
293.15 K, Frequency=0.001 MHz, x1 = 0.0987 | 2.04 ± 0.025
293.15 K, Frequency=0.001 MHz, x1 = 0.1449 | 2.31 ± 0.024
293.15 K, Frequency=0.001 MHz, x1 = 0.1859 | 2.435 ± 0.024
293.15 K, Frequency=0.001 MHz, x1 = 0.2493 | 2.37 ± 0.024
293.15 K, Frequency=0.001 MHz, x1 = 0.3029 | 2.29 ± 0.023
293.15 K, Frequency=0.001 MHz, x1 = 0.3845 | 2.111 ± 0.021
293.15 K, Frequency=0.001 MHz, x1 = 0.4985 | 1.84 ± 0.019
293.15 K, Frequency=0.001 MHz, x1 = 0.6954 | 1.46 ± 0.015
293.15 K, Frequency=0.001 MHz, x1 = 0.9013 | 1.19 ± 0.012
293.15 K, Frequency=0.001 MHz, x1 = 1 | 1.122 ± 0.011
293.15 K, Frequency=0.0015 MHz, x1 = 0.0463 | 1.37 ± 0.024
293.15 K, Frequency=0.0015 MHz, x1 = 0.0987 | 2.04 ± 0.025
293.15 K, Frequency=0.0015 MHz, x1 = 0.1449 | 2.31 ± 0.024
293.15 K, Frequency=0.0015 MHz, x1 = 0.1859 | 2.44 ± 0.024
293.15 K, Frequency=0.0015 MHz, x1 = 0.2493 | 2.37 ± 0.024

Conditions | electrical conductivity, 293.15 K [S/m] | mass density, 283.15 K [kg/m3] | viscosity, 293.15 K [mPa·s]
x1 = 0.0463 | 1.37 ± 0.024 | – | –
x1 = 0.0987 | 2.05 ± 0.025 | 1116.14 ± 8.9 | 3.07 ± 0.07
x1 = 0.1449 | 2.31 ± 0.024 | – | –
x1 = 0.1859 | 2.45 ± 0.025 | 1099.19 ± 8.8 | 4.46 ± 0.1
x1 = 0.2493 | 2.37 ± 0.024 | – | –
x1 = 0.3029 | 2.29 ± 0.023 | 1080.61 ± 8.7 | 6.96 ± 0.16
x1 = 0.3845 | 2.116 ± 0.021 | – | –
x1 = 0.4985 | 1.84 ± 0.019 | 1057.34 ± 8.5 | 13.06 ± 0.29
x1 = 0.6954 | 1.46 ± 0.015 | 1040.35 ± 8.3 | 21.74 ± 0.49
x1 = 0.9013 | 1.19 ± 0.012 | 1027.12 ± 8.3 | 33.58 ± 0.76
x1 = 1 | 1.123 ± 0.011 | 1021.96 ± 8.2 | 40.25 ± 0.91
